{"source": "patent US20230398130A1", "about": "“METHODS AND COMPOSITIONS FOR DIFFERENTIATING STEM CELLS” (Massachusetts Institute of Technology, priority 2020, published 2023)", "key": {"[1]": {"test_system": "ISC-enriched organoids", "assay": "Primary screen, 384-well 2.5-D organoid differentiation (ENR+CD, 6 days, Target Selective Inhibitor Library, vs whole-plate median): ATP (CellTiter-Glo 3D, CTG)", "details": "primary screen; for Dose.FC.CTG: FC vs plate median; for SSMD.CTG: strictly standardized mean difference"}, "[2]": {"test_system": "ISC-enriched organoids", "assay": "Primary screen, 384-well 2.5-D organoid differentiation (ENR+CD, 6 days): basal lysozyme secretion (LYZ.NS)", "assay_type": "cell-based, murine", "details": "primary screen; for Dose.FC.LYZ.NS: FC vs plate median; for SSMD.LYZ.NS: strictly standardized mean difference", "description": "(§1) High-throughput screening."}, "[3]": {"test_system": "ISC-enriched organoids", "assay": "Primary screen, 384-well 2.5-D organoid differentiation (ENR+CD, 6 days): carbachol-induced lysozyme secretion (LYZ.S)", "assay_type": "cell-based, murine", "details": "primary screen; for Dose.FC.LYZ.S: FC vs plate median; for Z.LYZ.S: standard z score; for SSMD.LYZ.S: strictly standardized mean difference", "description": "as §1"}, "[4]": {"details": "dose 0.08 uM, standard z score of FC"}, "[5]": {"details": "dose 0.40 uM, standard z score of FC"}, "[6]": {"details": "dose 2.00 uM, standard z score of FC"}, "[7]": {"details": "dose 10.00 uM, standard z score of FC"}, "[8]": {"details": "Dose 10.00 uM, standard z score"}, "[9]": {"details": "1st of the 4 dose lines of the treatment (dose not given)"}, "[10]": {"details": "2nd of the 4 dose lines of the treatment (dose not given)"}, "[11]": {"details": "3rd of the 4 dose lines of the treatment (dose not given)"}, "[12]": {"details": "4th of the 4 dose lines of the treatment (dose not given)"}}, "data": [{"compound": "COc1ccnc2[nH]cc(C(=O)C(=O)N3CCN(C(=O)c4ccccc4)C[C@H]3C)c12", "note": "[BMS-378806]", "values": [{"measurement": "Dose.FC.CTG", "setting": "[1]; dose 0.08 uM, ENR+CD 6 days", "value": 0.233, "unit": "log 2 fold change"}, {"measurement": "Z.CTG", "setting": "[1]; [4]", "value": 0.557}, {"measurement": "Dose.FC.CTG", "setting": "[1]; dose 0.40 uM, ENR+CD 6 days", "value": 0.102, "unit": "log 2 fold change"}, {"measurement": "Z.CTG", "setting": "[1]; [5]", "value": 0.243}, {"measurement": "Dose.FC.CTG", "setting": "[1]; dose 2.00 uM, ENR+CD 6 days", "value": "−0.289", "unit": "log 2 fold change"}, {"measurement": "Z.CTG", "setting": "[1]; [6]", "value": "−0.691"}, {"measurement": "Dose.FC.CTG", "setting": "[1]; dose 10.00 uM, ENR+CD 6 days", "value": "−1.155", "unit": "log 2 fold change"}, {"measurement": "Z.CTG", "setting": "[1]; [7]", "value": "−2.758"}, {"measurement": "Dose.FC.LYZ.NS", "setting": "[2]; dose 0.08 uM, ENR+CD 6 days", "value": 0.141, "unit": "log 2 fold change"}, {"measurement": "Z.LYZ.NS", "setting": "[2]; [4]", "value": 1.231}, {"measurement": "Dose.FC.LYZ.NS", "setting": "[2]; dose 0.40 uM, ENR+CD 6 days", "value": "−0.007", "unit": "log 2 fold change"}, {"measurement": "Z.LYZ.NS", "setting": "[2]; [5]", "value": "−0.061"}, {"measurement": "Dose.FC.LYZ.NS", "setting": "[2]; dose 2.00 uM, ENR+CD 6 days", "value": "−0.100", "unit": "log 2 fold change"}, {"measurement": "Z.LYZ.NS", "setting": "[2]; [6]", "value": "−0.870"}, {"measurement": "Dose.FC.LYZ.NS", "setting": "[2]; dose 10.00 uM, ENR+CD 6 days", "value": "−0.227", "unit": "log 2 fold change"}, {"measurement": "Z.LYZ.NS", "setting": "[2]; [7]", "value": "−1.977"}, {"measurement": "Dose.FC.LYZ.S", "setting": "[3]; dose 0.08 uM, ENR+CD 6 days", "value": 0.159, "unit": "log 2 fold change"}, {"measurement": "Dose.FC.LYZ.S", "setting": "[3]; dose 0.40 uM, ENR+CD 6 days", "value": 0.007, "unit": "log 2 fold change"}, {"measurement": "Dose.FC.LYZ.S", "setting": "[3]; dose 2.00 uM, ENR+CD 6 days", "value": "−0.142", "unit": "log 2 fold change"}, {"measurement": "Dose.FC.LYZ.S", "setting": "[3]; dose 10.00 uM, ENR+CD 6 days", "value": "−0.322", "unit": "log 2 fold change"}]}, {"compound": "NC(=O)c1ccc(I)c([N+](=O)[O-])c1", "note": "[Iniparib (BSI-201)]", "values": [{"measurement": "Dose.FC.CTG", "setting": "[1]; Dose 0.08 uM", "value": 0.339, "unit": "log 2 fold change"}, {"measurement": "Z.CTG", "setting": "[1]; Dose 0.08 uM, standard z score", "value": 0.810}, {"measurement": "Dose.FC.CTG", "setting": "[1]; Dose 0.40 uM", "value": 0.181, "unit": "log 2 fold change"}, {"measurement": "Z.CTG", "setting": "[1]; Dose 0.40 uM, standard z score", "value": 0.432}, {"measurement": "Dose.FC.CTG", "setting": "[1]; Dose 2.00 uM", "value": 0.157, "unit": "log 2 fold change"}, {"measurement": "Z.CTG", "setting": "[1]; Dose 2.00 uM, standard z score", "value": 0.375}, {"measurement": "Dose.FC.CTG", "setting": "[1]; Dose 10.00 uM", "value": 0.244, "unit": "log 2 fold change"}, {"measurement": "Z.CTG", "setting": "[1]; [8]", "value": 0.583}, {"measurement": "SSMD.CTG", "setting": "[1]; [9]", "value": 0.883}, {"measurement": "SSMD.CTG", "setting": "[1]; [10]", "value": 0.347}, {"measurement": "SSMD.CTG", "setting": "[1]; [11]", "value": 0.475}, {"measurement": "SSMD.CTG", "setting": "[1]; [12]", "value": 0.721}, {"measurement": "Dose.FC.LYZ.NS", "setting": "[2]; Dose 0.08 uM", "value": 0.042, "unit": "log 2 fold change"}, {"measurement": "Z.LYZ.NS", "setting": "[2]; Dose 0.08 uM, standard z score", "value": 0.364}, {"measurement": "Dose.FC.LYZ.NS", "setting": "[2]; Dose 0.40 uM", "value": 0.000, "unit": "log 2 fold change"}, {"measurement": "Z.LYZ.NS", "setting": "[2]; Dose 0.40 uM, standard z score", "value": 0.003}, {"measurement": "Dose.FC.LYZ.NS", "setting": "[2]; Dose 2.00 uM", "value": 0.016, "unit": "log 2 fold change"}, {"measurement": "Z.LYZ.NS", "setting": "[2]; Dose 2.00 uM, standard z score", "value": 0.138}, {"measurement": "Dose.FC.LYZ.NS", "setting": "[2]; Dose 10.00 uM", "value": "−0.016", "unit": "log 2 fold change"}, {"measurement": "Z.LYZ.NS", "setting": "[2]; [8]", "value": "−0.139"}, {"measurement": "SSMD.LYZ.NS", "setting": "[2]; [9]", "value": 0.375}, {"measurement": "SSMD.LYZ.NS", "setting": "[2]; [10]", "value": 0.003}, {"measurement": "SSMD.LYZ.NS", "setting": "[2]; [11]", "value": 0.109}, {"measurement": "SSMD.LYZ.NS", "setting": "[2]; [12]", "value": "−0.163"}, {"measurement": "Dose.FC.LYZ.S", "setting": "[3]; Dose 0.08 uM", "value": 0.032, "unit": "log 2 fold change"}, {"measurement": "Dose.FC.LYZ.S", "setting": "[3]; Dose 0.40 uM", "value": 0.035, "unit": "log 2 fold change"}, {"measurement": "Dose.FC.LYZ.S", "setting": "[3]; Dose 2.00 uM", "value": "−0.001", "unit": "log 2 fold change"}, {"measurement": "Dose.FC.LYZ.S", "setting": "[3]; Dose 10.00 uM", "value": "−0.010", "unit": "log 2 fold change"}, {"measurement": "Z.LYZ.S", "setting": "[3]; [9]", "value": 0.205}, {"measurement": "Z.LYZ.S", "setting": "[3]; [10]", "value": 0.229}, {"measurement": "Z.LYZ.S", "setting": "[3]; [11]", "value": "−0.006"}, {"measurement": "Z.LYZ.S", "setting": "[3]; [12]", "value": "−0.062"}, {"measurement": "SSMD.LYZ.S", "setting": "[3]; [9]", "value": 0.148}, {"measurement": "SSMD.LYZ.S", "setting": "[3]; [10]", "value": 0.247}, {"measurement": "SSMD.LYZ.S", "setting": "[3]; [11]", "value": "−0.005"}, {"measurement": "SSMD.LYZ.S", "setting": "[3]; [12]", "value": "−0.070"}]}]}
